# Measurements taken from patent US11655207B2, “Pharmaceutically acceptable salt of alkylcarbamoyl naphthalenyloxy octenoylhydroxy amide or of derivative thereof and method for preparing same” (CRYSTALGENOMICS, INC., priority 2017, dated 2023).
# Where two headings read alike, the source gives them in different places.
# How the values were obtained:
# [1] = Change in appearance of the salts at room temperature for 24 hours; format: physicochemical; settings: for Initial appearance: dried material; for Appearance (stored at R.T. for 24 hrs) / change in appearance (text summary of Table 4): room temperature, 24 hours
# Method: In the case of the suspension and the gel, firstly it was vacuum dried under reduced pressure and secondly vacuum dried for 24 to 48 hours.
# [2] = Stability evaluation: change in the amount of related substances; format: physicochemical; settings: for change (increase) in the amount of related substances: open state, room temperature, 3 days, FIG. 3
# [3] = Stability evaluation: change in appearance under storage conditions; format: physicochemical
# Excerpt: In order to evaluate the change in appearance of the compounds according to Comparative Examples and Examples, it was observed after storing each compound in accordance with the conditions shown in Table 6 below.
# [4] = Solubility of the compound of formula (1) in organic solvents (HPLC); format: physicochemical
# [5] = Stability evaluation: change in moisture content; format: physicochemical; settings: open state, room temperature (20 to 25° C., 50% or less), 3 days vs initial; FIG. 2
# Method: In order to evaluate the change in moisture content, the compounds according to Examples and Comparative Examples were stored in an open state at room temperature (20 to 25° C., 50% or less), and the change was measured by the difference between the initial moisture content and the moisture content after 3 days.
# [6] = 1 day, Acceleration (40±2° C. and 75±5% RH)
# [7] = 1 day, Long-term (25±2° C. and 60±5% RH)
# [8] = 1 day, Room temperature (20 to 25° C., 50% or less)
smiles,measurement,setting,value
CC(=O)O [Acetic acid],Initial appearance,[1],Foam
same,Appearance (stored at R.T. for 24 hrs),[1],Gel-like
O=S(=O)(O)c1ccccc1 [Benzensulfonic acid],Initial appearance,[1],Foam
same,Appearance (stored at R.T. for 24 hrs),[1],Gel-like
O=C(O)c1ccccc1 [Benzoic acid],Initial appearance,[1],Foam
same,Appearance (stored at R.T. for 24 hrs),[1],Gel-like
O=C(O)CC(O)(CC(=O)O)C(=O)O [Citric acid],Initial appearance,[1],Foam
same,Appearance (stored at R.T. for 24 hrs),[1],Gel-like
"CN(C)CCCNC(=O)/C(=C/CCCCC(=O)NO)COc1cccc2ccccc12 [Comparative Example 1, alkylcarbamoyl naphthalenyloxy octenoyl hydroxyamide]",Initial appearance,[1],Foam
same,Appearance (stored at R.T. for 24 hrs),[1],Gel-like
same,change (increase) in the amount of related substances,[2],about 10%
same,Appearance,[3]; [6],Gel-like
same,Appearance,[3]; [7],Gel-like
same,Appearance,[3]; [8],Gel-like
same,Appearance,"[3]; 1 day, Severe (60±2° C.)",Gel-like
same,Appearance,[3]; Initial value,Foam
same,change in appearance (Table 6),[3]; storage conditions of Table 6,changed from initial foam such as a sponge to a highly viscous liquid or gel structure
same,Solubility,"[4]; 1,4-dioxane, 20° C.",72.3 mg/mL
same,Solubility,"[4]; 1,4-dioxane, 50° C.",72.3 mg/mL
same,Solubility,"[4]; 1-butanol, 20° C.",>58.8 mg/mL
same,Solubility,"[4]; 2-propanol, 20° C.",73.8 mg/mL
same,Solubility,"[4]; 2-propanol, 50° C.",77.3 mg/mL
same,Solubility,"[4]; Acetone, 20° C.",43.3 mg/mL
same,Solubility,"[4]; Acetone, 50° C.",43.7 mg/mL
same,Solubility,"[4]; Acetonitrile, 20° C.",6.1 mg/mL
same,Solubility,"[4]; Acetonitrile, 50° C.",16.5 mg/mL
same,Solubility,"[4]; Butan-2-ol, 20° C.",39.6 mg/mL
same,Solubility,"[4]; Butan-2-ol, 50° C.",72.0 mg/mL
same,Solubility,"[4]; Chloroform, 20° C.",>80.7 mg/mL
same,Solubility,"[4]; Dimethyl sulfoxide, 20° C.",>70.6 mg/mL
same,Solubility,"[4]; Ethanol, 20° C.",>77.4 mg/mL
same,Solubility,"[4]; Ethyl acetate, 20° C.",4.6 mg/mL
same,Solubility,"[4]; Ethyl acetate, 50° C.",20.3 mg/mL
same,Solubility,"[4]; Methanol, 20° C.",>68.4 mg/mL
same,Solubility,"[4]; Methylene Ketone, 20° C.",66.6 mg/mL
same,Solubility,"[4]; Methylene Ketone, 50° C.",69.7 mg/mL
same,Solubility,"[4]; N,N-dimethylformamide, 20° C.",>76.6 mg/mL
same,Solubility,"[4]; Propanol, 20° C.",>70.3 mg/mL
same,Solubility,"[4]; Tert-butylmethyl ether, 20° C.",0.8 mg/mL
same,Solubility,"[4]; Tert-butylmethyl ether, 50° C.",0.8 mg/mL
same,Solubility,"[4]; Tetrahydrofuran, 20° C.",>74.0 mg/mL
same,Solubility,"[4]; Toluene, 20° C.",1.0 mg/mL
same,Solubility,"[4]; Toluene, 50° C.",3.3 mg/mL
same,increase in moisture content,[5],about 3%
CCS(=O)(=O)O [Ethanesulfonic acid],Initial appearance,[1],Foam
same,Appearance (stored at R.T. for 24 hrs),[1],Gel-like
"CN(C)CCCNC(=O)/C(=C/CCCCC(=O)NO)COc1cccc2ccccc12.O=C(O)C(O)C(O)C(=O)O [Example 1, Alkylcarbamoyl Naphthalenyloxy Octenoyl Hydroxyamide Tartaric Acid Salt]",Content,"bottle package, 1 day, Acceleration (40±2° C. and 75±5% RH)",89.1
same,Content,"bottle package, 1 day, Long-term (25±2° C. and 60±5% RH)",99.1
same,Content,"bottle package, 3 days, Acceleration (40±2° C. and 75±5% RH)",84.0
same,Content,"bottle package, 3 days, Long-term (25±2° C. and 60±5% RH)",84.1
same,Content,"bottle package, 7 days, Acceleration (40±2° C. and 75±5% RH)",78.5
same,Content,"bottle package, 7 days, Long-term (25±2° C. and 60±5% RH)",78.5
same,change in content (text summary of Tables 7 and 8),"open state and bottle package, all storage conditions",maintained constant at room temperature regardless of the packaging state
same,Content,"open state, 1 day, Acceleration (40±2° C. and 75±5% RH)",92.3
same,Content,"open state, 3 days, Severe (60±2° C.)",97.2
same,Content,"open state, 7 days, Room temperature",100.1
same,Content,"open state, 7 days, Severe (60±2° C.)",89.1
same,Content,"open state, Initial value",98.9
same,Content,"polyethylene bottle package (added silica gel), Initial value",98.9
same,Initial appearance,[1],Powder
same,Appearance (stored at R.T. for 24 hrs),[1],Powder
same,change in appearance (text summary of Table 4),[1],no change in appearance was observed
same,amount of formation of the related substances,"[2]; according to temperature and storage period, FIGS. 4 and 5",maintained in a certain range at a relatively low temperature
same,change (increase) in the amount of related substances,[2],0.05%
same,Appearance,[3]; [6],Gel-like
same,Appearance,[3]; [7],Gel-like
same,Appearance,[3]; [8],Powder
same,Appearance,"[3]; 1 day, Severe (60±2° C.)",Powder
same,Appearance,[3]; Initial value,Powder
same,increase in moisture content,[5],2%
O=C(O)/C=C/C(=O)O [Fumaric acid],Initial appearance,[1],Powder
same,Appearance (stored at R.T. for 24 hrs),[1],Gel-like
"CN(C)CCCNC(=O)/C(=C/CCCCC(=O)NO)COc1cccc2ccccc12.O=C(O)[C@H](O)[C@@H](O)[C@H](O)[C@H](O)CO [Gluconic acid, (D−)]",Initial appearance,[1],Powder
same,Appearance (stored at R.T. for 24 hrs),[1],Gel-like
O=C(O)CCCC(=O)O [Glutaric acid],Initial appearance,[1],Powder
same,Appearance (stored at R.T. for 24 hrs),[1],Gel-like
O=C(O)CNC(=O)c1ccccc1 [Hippuric acid],Initial appearance,[1],Foam
same,Appearance (stored at R.T. for 24 hrs),[1],Gel-like
Cl [Hydrochloric acid],Initial appearance,[1],Gel-like
same,Appearance (stored at R.T. for 24 hrs),[1],Gel-like
O=C(O)/C=C\C(=O)O [Maleic acid],Initial appearance,[1],Foam
same,Appearance (stored at R.T. for 24 hrs),[1],Gel-1ike
O=C(O)CC(=O)O [Malonic acid],Initial appearance,[1],Foam
same,Appearance (stored at R.T. for 24 hrs),[1],Gel-like
CN(C)CCCNC(=O)/C(=C/CCCCC(=O)NO)COc1cccc2ccccc12.CS(=O)(=O)O [Methanensulfonic acid],Initial appearance,[1],Foam
same,Appearance (stored at R.T. for 24 hrs),[1],Gel-like
O=S(=O)(O)c1ccc2ccccc2c1 [Naphthalene-2-sulfonic acid],Initial appearance,[1],Powder
same,Appearance (stored at R.T. for 24 hrs),[1],Gel-like
"O=C(O)c1ccc2ccccc2c1O [Naphthoic acid, 1-hydroxy-2]",Initial appearance,[1],Powder
same,Appearance (stored at R.T. for 24 hrs),[1],Gel-like
CCCCCCCCCCCCCCCCCC(=O)O [Stearic acid],Initial appearance,[1],Powder
same,Appearance (stored at R.T. for 24 hrs),[1],Powder
same,change in appearance (text summary of Table 4),[1],no change in appearance was observed
O=C(O)CCC(=O)O [Succinic acid],Initial appearance,[1],Powder
same,Appearance (stored at R.T. for 24 hrs),[1],Gel-like
O=S(=O)(O)O [Sulfuric acid],Initial appearance,[1],Gel-like
same,Appearance (stored at R.T. for 24 hrs),[1],Gel-like
"CN(C)CCCNC(=O)/C(=C/CCCCC(=O)NO)COc1cccc2ccccc12.Cc1ccc(S(=O)(=O)O)cc1 [Toluensulfonic acid, para]",Initial appearance,[1],Foam
same,Appearance (stored at R.T. for 24 hrs),[1],Gel-like
CN(C)CCCNC(=O)/C(=C/CCCCC(=O)NO)COc1cccc2ccccc12.O=C(O)C(F)(F)F [Trifluoracetic acid],Initial appearance,[1],Ge-1ike
same,Appearance (stored at R.T. for 24 hrs),[1],Gel-like
